Experimental data: patent US20230151302A1, “Cationic surfactants, in particular ethyl lauroyl arginate LAE, for treating or preventing infections and contaminations with Coronavirus” (priority 2020, published 2023)
Where “and” joins values, the source holds several entries; their conditions need not be identical. Equal values may be shown once. Entries after “also recorded” stand apart in the source; their conditions may differ. Read-outs that look alike come from different tables or passages of the source.

Tests used:
[1] = test system: Poliovirus type 1 (ATCC VR-192); format: cell-based
[2] = test system: murine Norovirus (cepa S99 Berlin); format: cell-based
[3] = test system: MRC-5, ref. FTMR cells
[4] = test system: Adenovirus type 5 (ATCC VR-5); format: cell-based
[5] = test system: Vero, ref. FTVE cells
[6] = test system: Coronavirus 229E (ATCC VR-740); format: cell-based, human Coronavirus 229E
[7] = test system: SARS-CoV-2; conditions: cited from earlier work
[8] = in vivo; cited from earlier work
[9] = test system: Herpes simplex virus type 1; conditions: 200 ppm in water, after 5 and 60 minutes; monohydrochloride; cited from earlier work
[10] = test system: Bovine Parainfluenza 3 virus (ATCC VR-281); conditions: 200 ppm in water, after 5 and 60 minutes; monohydrochloride; cited from earlier work
[11] = rats; cited from earlier work
[12] = test system: Vaccinia virus (Orthopoxvirus); conditions: monohydrochloride; cited from earlier work

**Q.** Which “log10 TCID50 after 30 min” value [1] does the source give for `C=O` [Formaldehyde, formaldehyde, reference compound] here?
**A.** 5.00 log10 TCID50

**Q.** And the “log10 TCID50 after 60 min” value [1]?
**A.** 3.07 log10 TCID50

**Q.** And the “log10 TCID50 after 30 min” value [2]?
**A.** 3.16 log10 TCID50

**Q.** And the “log10 TCID50 after 60 min” value [2]?
**A.** 1.74 log10 TCID50

**Q.** What about the Level of cytotoxicity ([3]; human) of the same molecule?
**A.** 0.5

**Q.** What about the “log10 TCID50 after 30 min” value [4] of the same molecule?
**A.** 2.58 log10 TCID50

**Q.** And the “log10 TCID50 after 60 min” value [4]?
**A.** 1.33 log10 TCID50

**Q.** And the Level of cytotoxicity ([5]; African green monkey)?
**A.** 0.5

**Q.** And the “log10 TCID50 after 5 min” value [6]?
**A.** 3.58 log10 TCID50

**Q.** What about the “log10 TCID50 after 15 min” value [6] of the same molecule?
**A.** 2.49 log10 TCID50

**Q.** Which “reduction in viral titres” value [7] does the source give for `[H]/N=C(\N/C(=N/[H])NCCCCCCNC(=N)NC(=N)Nc1ccc(Cl)cc1)Nc1ccc(Cl)cc1` [chlorhexidine] here?
**A.** < 2 log fold

**Q.** With `CCO` [ethanol] as the molecule, how does the “effect on virus infectivity” value ([7]; ethanol alone at <23%) read?
**A.** no effect

**Q.** What does the source list for “L-arginine, N^α-lauroyl-ethyl ester monohydrochloride [LAE®]”?
**A.** toxicity to animals and humans [8]: completely harmless; effectiveness against the virus [1]: not effective; viricidal activity (reduction ≥4 log10) [1]: has no viricidal activity; Reduction with 95% confidence interval after 30 minutes ([1]; monohydrochloride): 2.33±0.53 and 1.82±0.52 and 1.49±0.46 and 1.82 ± 0.52 log10 and 1.49 ± 0.46 log10 and 2.33 ± 0.53 log10; antiviral activity, remaining virus (TCID50) [9]: No remaining virus was detected; also recorded: effective; Level of cytotoxicity [3]: 0.5; antiviral activity, remaining virus (TCID50) [10]: No remaining virus was detected; also recorded: effective; absorption and metabolization [11]: fast absorption and metabolization; Level of cytotoxicity [5]: 0.5; antiviral activity, remaining virus (TCID50) [12]: No remaining virus was detected; also recorded: effective; effectiveness against the virus [6]: effective; reduction (maximum effects) [6]: > 4 logo; viricidal activity (reduction ≥4 log10) [6]: has viricidal activity
